Square brackets hold non-standard residues; d marks the D form. Peptide text beside a SMILES is read from it. * marks the point of attachment. Benzoyl(4-guanidino) = N=C(N)Nc1ccc(C(=O)*)cc1; Oic = O=C(O)[C@@H]1C[C@@H]2CCCC[C@@H]2N1; Hyp = O=C(O)[C@@H]1C[C@@H](O)CN1; dTic = O=C(O)[C@H]1Cc2ccccc2CN1; 2Thi = N[C@@H](Cc1cccs1)C(=O)O
Target: T1, B2 bradykinin receptor (Homo sapiens, UniProt P30411)
T1 sequence (P30411 whole entry): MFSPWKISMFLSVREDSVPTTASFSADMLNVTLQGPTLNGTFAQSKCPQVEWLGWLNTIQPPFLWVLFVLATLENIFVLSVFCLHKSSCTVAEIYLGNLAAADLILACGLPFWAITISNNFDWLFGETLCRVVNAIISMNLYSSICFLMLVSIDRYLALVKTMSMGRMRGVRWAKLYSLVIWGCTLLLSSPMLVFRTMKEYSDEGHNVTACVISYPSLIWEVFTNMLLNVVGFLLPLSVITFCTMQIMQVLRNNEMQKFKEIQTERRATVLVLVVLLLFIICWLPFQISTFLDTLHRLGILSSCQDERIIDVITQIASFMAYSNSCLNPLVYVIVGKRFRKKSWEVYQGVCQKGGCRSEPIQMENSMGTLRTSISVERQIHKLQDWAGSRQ
Test: Antagonist effect against bradykinin B2 receptor was determined in rabbit jugular vein
Assay type: functional, tissue-based, Oryctolagus cuniculus
Settings: target entry is the homologue from another species; read-out: pA2 (converted)

Kb: 0.263 nM
Compound: N=C(N)NCCC[C@H](NC(=O)[C@@H]1C[C@@H]2CCCC[C@@H]2N1C(=O)[C@H]1Cc2ccccc2CN1C(=O)[C@H](CO)NC(=O)[C@H](Cc1cccs1)NC(=O)CNC(=O)[C@@H]1C[C@@H](O)CN1C(=O)[C@@H]1CCCN1C(=O)[C@H](CCCNC(=N)N)NC(=O)c1ccc(NC(=N)N)cc1)C(=O)O ({Benzoyl(4-guanidino)}-RP[Hyp]G[2Thi]S[dTic][Oic]R-OH)

Reference: ChEMBL document CHEMBL1127267, “p-Guanidinobenzoyl-[Hyp3, Thi5, D-Tic7, Oic8]bradykinin is almost completely devoid of the agonist effect of HOE140 on the endothelium-free femoral artery of sheep” (Bioorg Med Chem Lett, 1994)
